Test results as given in patent US12071425B2 (Genentech, Inc., priority 2018, dated 2024).
Structures can show the parent of a compound that is named as a salt.

The compounds below were run against kinase domain of IRE1 alpha (His-tagged kinase dead construct KR, AA G547-L977, D688N) (Homo sapiens (Human), UniProt O75460, D688N) (assay: IRE1α TR-FRET competition binding assay). Details: competition with Kinase Tracer 236, 0.1 μM; one hour at room temperature.
Summary of the method: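 Sf9-expressed kinase-dead KR construct (0.006 μM final) pre-incubated 1 h at 4° C with Eu anti-His antibody (0.002 μM) in HEPES pH 7.5/MgCl2/Brij/DTT buffer; Kinase Tracer 236 (ATP-competitive probe, 0.1 μM final) added with compound. 1 h at room temperature; tracer displacement read by TR-FRET (665/615 nm).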

Sequence of kinase domain of IRE1 alpha (His-tagged kinase dead construct KR, AA G547-L977, D688N) (O75460 547-977 D688N): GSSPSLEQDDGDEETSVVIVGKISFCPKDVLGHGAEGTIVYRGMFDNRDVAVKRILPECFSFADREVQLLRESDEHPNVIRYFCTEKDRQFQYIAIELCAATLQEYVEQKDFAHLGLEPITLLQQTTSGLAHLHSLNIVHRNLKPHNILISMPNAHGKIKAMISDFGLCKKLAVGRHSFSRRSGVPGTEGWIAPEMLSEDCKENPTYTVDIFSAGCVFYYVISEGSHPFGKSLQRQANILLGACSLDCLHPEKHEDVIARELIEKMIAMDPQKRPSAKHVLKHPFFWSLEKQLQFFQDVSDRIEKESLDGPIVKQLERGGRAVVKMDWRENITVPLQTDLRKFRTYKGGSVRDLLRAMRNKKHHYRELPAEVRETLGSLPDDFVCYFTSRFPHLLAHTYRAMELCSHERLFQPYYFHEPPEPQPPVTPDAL

| SMILES | IC50 [nM] |
| --- | --- |
| O=S(=O)(CC1CCCCC1)Nc1ccc(Oc2ncccc2-c2ccnc(N[C@H]3CCCNC3)n2)c(F)c1F [Compound 145, (S)-1-Cyclohexyl-N-(2,3-difluoro-4-((3-(2-(piperidin-3-ylamino)pyrimidin-4-yl)pyridin-2-yl)oxy)phenyl)methanesulfonamide hydrochloride] | 7.8 |
| O=S(=O)(Cc1ccccc1F)Nc1ccc(Oc2ncccc2-c2ccnc(N[C@H]3CCCNC3)n2)c(F)c1F [Compound 146, (S)-N-(2,3-difluoro-4-((3-(2-(piperidin-3-ylamino)pyrimidin-4-yl)pyridin-2-yl)oxy)phenyl)-1-(2-fluorophenyl)methanesulfonamide hydrochloride] | 4 |
| O=C(Nc1ccc(Oc2ncccc2-c2ccnc(N[C@H]3CCCNC3)n2)c(F)c1F)C1CC1 [Compound 147, (S)—N-(2,3-Difluoro-4-(3-(2-(piperidin-3-ylamino)pyrimidin-4-yl)pyridin-2-yloxy)phenyl)cyclopropanecarboxamide hydrochloride] | 210 |
| CCC(F)(F)CS(=O)(=O)Nc1ccc(Oc2ncccc2-c2ccnc(N[C@H]3CCCNC3)n2)c(F)c1F [Compound 148, (S)-N-(2,3-Difluoro-4-((3-(2-(piperidin-3-ylamino)pyrimidin-4-yl)pyridin-2-yl)oxy)phenyl)-2,2-difluorobutane-1-sulfonamide hydrochloride] | 6.5 |
| CC(F)(F)CCS(=O)(=O)Nc1ccc(Oc2ncccc2-c2ccnc(N[C@H]3CCCNC3)n2)c(F)c1F [Compound 149, (S)-N-(2,3-difluoro-4-((3-(2-(piperidin-3-ylamino)pyrimidin-4-yl)pyridin-2-yl)oxy)phenyl)-3,3-difluorobutane-1-sulfonamide hydrochloride] | 8.7 |
| O=C(Nc1ccc(Oc2ncccc2-c2ccnc(N[C@H]3CCCNC3)n2)c(F)c1F)C1CC12CC2 (stereo partly drawn) [Compound 151, N-(2,3-difluoro-4-((3-(2-(((S)-piperidin-3-yl)amino)pyrimidin-4-yl)pyridin-2-yl)oxy)phenyl)spiro[2.2]pentane-1-carboxamide hydrochloride] | 84 |
| O=S(=O)(Cc1ccccc1)Nc1c(F)cc(Oc2ncccc2-c2ccnc(N[C@H]3CCCNC3)n2)cc1F [Compound 152, (S)-N-(2,6-difluoro-4-((3-(2-(piperidin-3-ylamino)pyrimidin-4-yl)pyridin-2-yl)oxy)phenyl)-1-phenylmethanesulfonamide hydrochloride] | 3.9 |

Other lines, results leading:

| IC50 [nM] | SMILES |
| --- | --- |
| 3.8 | O=S(=O)(Cc1ccccc1)Nc1c(F)cc(Oc2ncccc2-c2ccnc(N[C@H]3CCCNC3)n2)c(F)c1F [Compound 153, (S)-1-Phenyl-N-(2,3,6-trifluoro-4-((3-(2-(piperidin-3-ylamino)pyrimidin-4-yl)pyridin-2-yl)oxy)phenyl)methanesulfonamide hydrochloride] |
| 3.8 | Cc1c(Oc2ncccc2-c2ccnc(N[C@H]3CCCNC3)n2)cc(F)c(NS(=O)(=O)Cc2ccccc2)c1F [Compound 154, (S)-N-(2,6-difluoro-3-methyl-4-(3-(2-(piperidin-3-ylamino)pyrimidin-4-yl)pyridin-2-yloxy)phenyl)(phenyl)methanesulfonamide hydrochloride] |
| 4.5 | Cc1cc(NS(=O)(=O)Cc2ccccc2)c(F)c(F)c1Oc1ncccc1-c1ccnc(N[C@H]2CCCNC2)n1 [Compound 155, (S)-N-(2,3-difluoro-5-methyl-4-((3-(2-(piperidin-3-ylamino)pyrimidin-4-yl)pyridin-2-yl)oxy)phenyl)-1-phenylmethanesulfonamide] |
| 4.6 | O=S(=O)(Cc1ccccc1)Nc1cc(F)c(Oc2ncccc2-c2ccnc(N[C@H]3CCCNC3)n2)c(F)c1F [Compound 156, (S)-1-phenyl-N-(2,3,5-trifluoro-4-((3-(2-(piperidin-3-ylamino)pyrimidin-4-yl)pyridin-2-yl)oxy)phenyl)methanesulfonamide hydrochloride] |
